The values below come from ChEMBL document CHEMBL1151242, “A new antifungal metabolite from Penicillium expansum” (2004).

One may read the inhibition as the change of the read-out against control, counted positive when it falls.

The assay has as its system Lasiodiplodia theobromae. Kind of assay: Antifungal activity against Lasiodiplodia theobromae OCS71 assessed as inhibition of mycelial growth at 100 ug/ml after 4 days by fungicide disk assay. The format is functional. The note with it: 96 h.
In the case of `COc1cc(O)c(C)c2c1CO[C@@H](C)C2`, the inhibition at 100 µg/mL is less than 10%.
Next, `COc1cc(O)c(C)c2c1[C@@H](OC)O[C@@H](C)C2`: 76%.
Regarding `COC1=CC(=O)C(C)=C2C[C@H](C)OC=C12`, the inhibition at 100 µg/mL was found to be 69%.
The figure for `CCOC1O[C@@H](C)Cc2c(C)c(O)cc(OC)c21` (some centres undefined) is 74%.
